Assay results from patent US20210352899A1, “COMPOSITIONS COMPRISING PYRIDINE CARBOXYLATE HERBICIDES AND FATTY ACID AND LIPID SYNTHESIS INHIBITOR HERBICIDES” (Corteva Agriscience LLC, priority 2018, published 2021).

Columns and labels:
Type in all cases: in vivo
[1] = test system: Salsola kali (Russian thistle); assay: Greenhouse postemergence herbicidal effect, SASKR
Description: (§1) Seeds of the desired test plant species were planted in a 90:10% v/v (volume/volume) mixture of PRO-MIX® BX (Premier Tech Horticulture, Quakertown, Pa., USA) and PROFILE® GREENS GRADE™ (Profile Products LLC, Buffalo Grove, Ill., USA) planting mixture, which typically has a pH of 5.2 to 6.2 and an organic matter content of at least 50 percent, in plastic pots with a surface area of 103.2 square centimeters (cm^2). In some aspects, to help ensure good germination and healthy plants, a fungicide treatment and/or other chemical or physical treatment was applied. The plants were grown for 7-36 days (d) in a greenhouse with an approximate 14-hour (h) photoperiod which was maintained at about 23° C. during the day and 22° C. during the night. Nutrients and water were added on a regular basis and supplemental lighting was provided with overhead metal halide 1000-Watt lamps as necessary. The plants were employed for testing when they reached the second or third true leaf stage.
(§2) Emulsifiable concentrates of each pyridine carboxylate herbicide (Compound A or Compound B) were prepared at 100 grams acid equivalent per liter (g ae/L). The emulsifiable concentrates also included a safener, cloquintocet-mexyl, at 120 grams active ingredient per liter (g ai/L). An aliquot of each emulsifiable concentrate was placed in a 25 mL glass vial and diluted with an aqueous mixture of 1.25% (v/v) ACTIROB® B esterified rapeseed oil (Bayer Crop Science, Research Triangle Park, N.C., USA) or MSO® Concentrate with LECI-TECH® methylated soybean oil (Loveland Products, Loveland, Colo., USA) to obtain concentrated stock solutions at the highest application rate for each herbicide, based upon a 12 milliliter (mL) application volume at a rate of 187 liters per hectare (L/ha). The concentrated stock solutions were further diluted with an aqueous mixture of 1.25% v/v ACTIROB® B or MSO® Concentrate with LECI-TECH® to obtain stock solutions at reduced application rates for each herbicide. Spray solutions of the herbicide combinations (Compound A or Compound B plus the FA/LSI herbicide) were prepared by adding weighed amounts or aliquots of the FA/LSI herbicide to the stock solutions of Compound A or Compound B to form 12-mL spray solutions in two-way combinations.
(§3) The spray solutions were applied to the plant material with an overhead Mandel track sprayer equipped with 8002E nozzles calibrated to deliver 187 L/ha over an application area of 0.503 square meters (m^2) at a spray height of 18 inches (43 centimeters (cm)) above the average plant canopy. Control plants were sprayed in the same manner with the solvent blank. All pyridine carboxylate herbicide (component a) application rates are given as “g ae/ha” and all FA/LSI herbicide (component b) application rates are given as “g ai/ha.”
(§4) The treated plants and control plants were placed in a greenhouse as described above and watered by sub-irrigation to prevent wash-off of the test compounds. After 20-22 d, the condition of the test plants as compared with that of the control plants was determined visually and scored on a scale of 0 to 100 percent where 0 corresponds to no injury and 100 corresponds to complete kill.

[2] = test system: Matricaria chamomilla (wild chamomile); assay: Greenhouse postemergence herbicidal effect, MATCH
Description: as §1, §2, §3, §4

[3] = test system: Sinapis arvensis (wild mustard); assay: Greenhouse postemergence herbicidal effect, SINAR
Description: as §1, §2, §3, §4

[4] = test system: Polygonum convolvulus (wild buckwheat); assay: Greenhouse postemergence herbicidal effect, POLCO
Description: as §1, §2, §3, §4

[5] = test system: Amaranthus retroflexus (pigweed); assay: Greenhouse postemergence herbicidal effect, AMARE
Description: as §1, §2, §3, §4

[6] = test system: Brassica napus (spring rape); assay: Greenhouse postemergence herbicidal effect, BRSNN
Description: as §1, §2, §3, §4

Kochia scoparia (kochia) = assay: Greenhouse postemergence herbicidal effect, KCHSC
Description: as §1, §2, §3, §4

[7] = test system: Chenopodium album L. (common lambsquarters); assay: Greenhouse postemergence herbicidal effect, CHEAL
Description: as §1, §2, §3, §4

[8] = test system: Setaria faberi (giant foxtail); assay: Greenhouse postemergence herbicidal effect, SETFA
Description: as §1
(§5) Emulsifiable concentrates of each pyridine carboxylate herbicide (Compound A or Compound B) were prepared at 100 grams acid equivalent per liter (g ae/L). The emulsifiable concentrates also included a safener, cloquintocet-mexyl, at 120 grams active ingredient per liter (g ai/L). […]
as §4

[9] = test system: Digitaria sanguinalis (large crabgrass); assay: Greenhouse postemergence herbicidal effect, DIGSA
Description: as §1, §5, §4

[10] = test system: Cirsium arvense (Canada thistle); assay: Greenhouse postemergence herbicidal effect, CIRAR
Description: as §1, §2, §3, §4

Glycine max (soybean) = assay: Greenhouse postemergence herbicidal effect, GLXMA
Description: as §1, §5, §4

[11] = test system: Hordeum vulgare (spring barley); assay: Greenhouse postemergence crop phytotoxicity, HORVS
Description: as §1, §2, §3, §4

[12] = test system: Viola tricolor (wild pansy); assay: Greenhouse postemergence herbicidal effect, VIOTR
Description: as §1, §5, §4

[13] = test system: Lolium multiflorum (Italian ryegrass); assay: Greenhouse postemergence herbicidal effect, LOLMU
Description: as §1, §5, §4

[14] = test system: Echinochloa crus-galli (barnyard grass); assay: Greenhouse postemergence herbicidal effect, ECHCG
Description: as §1, §5, §4

[15] = test system: Triticum aestivum (spring wheat); assay: Greenhouse postemergence crop phytotoxicity, TRZAS
Description: as §1, §2, §3, §4

[16] = test system: Stellaria media (chickweed); assay: Greenhouse postemergence herbicidal effect, STEME
Description: as §1, §5, §4

[17] = Compound A 0, Thiobencarb 1120 g/ha
[18] = Compound A 7.5 g/ha, Benfuresate 0
[19] = Compound A 7.5 g/ha, Esprocarb 0
[20] = Compound A 7.5 g/ha, Thiobencarb 0
[21] = Compound A 10 g/ha, Benfuresate 0
[22] = Compound A 10 g/ha, Esprocarb 0
[23] = Compound A 10 g/ha, Thiobencarb 0
[24] = Compound A 7.5 g/ha, Prosulfocarb 0
[25] = Compound A 10 g/ha, Prosulfocarb 0
[26] = Compound A 0, Prosulfocarb 250 g/ha
[27] = Compound A 0, Benfuresate 150 g/ha
[28] = Compound A 0, Esprocarb 420 g/ha

## CCN(CC)C(=O)SCc1ccc(Cl)cc1 [Thiobencarb, thiobencarb, reference compound]
[1]; [17]
  % visual injury, Obs: 0%
[2]; [17]
  % visual injury, Obs: 15%
[3]; [17]
  % visual injury, Obs: 5%
[4]; [17]
  % visual injury, Obs: 0%
[5]; [17]
  % visual injury, Obs: 10%
[6]; [17]
  % visual injury, Obs: 10%
Kochia scoparia (kochia); [17]
  % visual injury, Obs: 0%
[7]; [17]
  % visual injury, Obs: 0%

## N#CCOC(=O)c1nc(-c2ccc3cc[nH]c3c2F)c(F)c(N)c1Cl [Compound A, cyanomethyl 4-amino-3-chloro-5-fluoro-6-(7-fluoro-1H-indol-6-yl)pyridine-2-carboxylate]
[1]; [18]
  % visual injury, Obs: 45%
[1]; [19]
  % visual injury, Obs: 38%
[1]; [20]
  % visual injury, Obs: 45%
[1]; [21]
  % visual injury, Obs: 60%
[1]; [22]
  % visual injury, Obs: 63%
[1]; [23]
  % visual injury, Obs: 60%
[8]; [24]
  % visual injury, Obs: 70%
[8]; [25]
  % visual injury, Obs: 70%
[9]; [24]
  % visual injury, Obs: 45%
[9]; [25]
  % visual injury, Obs: 25%
[10]; [19]
  % visual injury, Obs: 10%
[10]; [24]
  % visual injury, Obs: 23%
[10]; [22]
  % visual injury, Obs: 23%
[10]; [25]
  % visual injury, Obs: 20%
Glycine max (soybean); [24]
  % visual injury, Obs: 93%
Glycine max (soybean); [25]
  % visual injury, Obs: 95%
[11]; [18]
  % visual injury, Obs: 8%
[11]; [19]
  % visual injury, Obs: 0%
[11]; [20]
  % visual injury, Obs: 8%
[11]; [21]
  % visual injury, Obs: 0%
[11]; [22]
  % visual injury, Obs: 0%
[11]; [23]
  % visual injury, Obs: 0%
[2]; [18]
  % visual injury, Obs: 13%
[2]; [19]
  % visual injury, Obs: 0%
[2]; [20]
  % visual injury, Obs: 13%
[2]; [21]
  % visual injury, Obs: 15%
[2]; [22]
  % visual injury, Obs: 33%
[2]; [23]
  % visual injury, Obs: 15%
[12]; [24]
  % visual injury, Obs: 10%
[12]; [25]
  % visual injury, Obs: 18%
[13]; [24]
  % visual injury, Obs: 0%
[13]; [25]
  % visual injury, Obs: 0%
[14]; [24]
  % visual injury, Obs: 73%
[14]; [25]
  % visual injury, Obs: 78%
[3]; [18]
  % visual injury, Obs: 88%
[3]; [19]
  % visual injury, Obs: 85%
[3]; [20]
  % visual injury, Obs: 88%
[3]; [21]
  % visual injury, Obs: 92%
[3]; [22]
  % visual injury, Obs: 90%
[3]; [23]
  % visual injury, Obs: 92%
[4]; [18]
  % visual injury, Obs: 70%
[4]; [24]
  % visual injury, Obs: 75%
[4]; [20]
  % visual injury, Obs: 70%
[4]; [21]
  % visual injury, Obs: 78%
[4]; [25]
  % visual injury, Obs: 70%
[4]; [23]
  % visual injury, Obs: 78%
[15]; [18]
  % visual injury, Obs: 0%
[15]; [19]
  % visual injury, Obs: 0%
[15]; [20]
  % visual injury, Obs: 0%
[15]; [21]
  % visual injury, Obs: 0%
[15]; [22]
  % visual injury, Obs: 0%
[15]; [23]
  % visual injury, Obs: 0%
[5]; [18]
  % visual injury, Obs: 100%
[5]; [19]
  % visual injury, Obs: 70%
[5]; [20]
  % visual injury, Obs: 100%
[5]; [21]
  % visual injury, Obs: 100%
[5]; [22]
  % visual injury, Obs: 98%
[5]; [23]
  % visual injury, Obs: 100%
[6]; [18]
  % visual injury, Obs: 55%
[6]; [19]
  % visual injury, Obs: 55%
[6]; [24]
  % visual injury, Obs: 73%
[6]; [20]
  % visual injury, Obs: 55%
[6]; [21]
  % visual injury, Obs: 60%
[6]; [22]
  % visual injury, Obs: 70%
[6]; [25]
  % visual injury, Obs: 83%
[6]; [23]
  % visual injury, Obs: 60%
Kochia scoparia (kochia); [18]
  % visual injury, Obs: 50%
Kochia scoparia (kochia); [19]
  % visual injury, Obs: 50%
Kochia scoparia (kochia); [24]
  % visual injury, Obs: 60%
Kochia scoparia (kochia); [20]
  % visual injury, Obs: 50%
Kochia scoparia (kochia); [21]
  % visual injury, Obs: 58%
Kochia scoparia (kochia); [22]
  % visual injury, Obs: 55%
Kochia scoparia (kochia); [25]
  % visual injury, Obs: 65%
Kochia scoparia (kochia); [23]
  % visual injury, Obs: 58%
[16]; [24]
  % visual injury, Obs: 100%
[16]; [25]
  % visual injury, Obs: 97%
[7]; [18]
  % visual injury, Obs: 70%
[7]; [19]
  % visual injury, Obs: 60%
[7]; [24]
  % visual injury, Obs: 97%
[7]; [20]
  % visual injury, Obs: 70%
[7]; [21]
  % visual injury, Obs: 83%
[7]; [22]
  % visual injury, Obs: 90%
[7]; [25]
  % visual injury, Obs: 93%
[7]; [23]
  % visual injury, Obs: 83%

## CCCN(CCC)C(=O)SCc1ccccc1 [Prosulfocarb, prosulfocarb, reference compound]
[8]; [26]
  % visual injury, Obs: 0%
[9]; [26]
  % visual injury, Obs: 0%
[10]; [26]
  % visual injury, Obs: 0%
Glycine max (soybean); [26]
  % visual injury, Obs: 0%
[12]; [26]
  % visual injury, Obs: 0%
[13]; [26]
  % visual injury, Obs: 0%
[14]; [26]
  % visual injury, Obs: 0%
[4]; [26]
  % visual injury, Obs: 0%
[6]; [26]
  % visual injury, Obs: 0%
Kochia scoparia (kochia); [26]
  % visual injury, Obs: 0%
[16]; [26]
  % visual injury, Obs: 0%
[7]; [26]
  % visual injury, Obs: 0%

## CCS(=O)(=O)Oc1ccc2c(c1)C(C)(C)CO2 [Benfuresate, benfuresate, reference compound]
[1]; [27]
  % visual injury, Obs: 0%
[2]; [27]
  % visual injury, Obs: 0%
[3]; [27]
  % visual injury, Obs: 0%
[4]; [27]
  % visual injury, Obs: 0%
[5]; [27]
  % visual injury, Obs: 10%
[6]; [27]
  % visual injury, Obs: 5%
Kochia scoparia (kochia); [27]
  % visual injury, Obs: 0%
[7]; [27]
  % visual injury, Obs: 0%

## CCN(C(=O)SCc1ccccc1)C(C)C(C)C (stereo not drawn) [Esprocarb, esprocarb, reference compound]
[1]; [28]
  % visual injury, Obs: 0%
[10]; [28]
  % visual injury, Obs: 0%
[2]; [28]
  % visual injury, Obs: 5%
[3]; [28]
  % visual injury, Obs: 0%
[5]; [28]
  % visual injury, Obs: 15%
[6]; [28]
  % visual injury, Obs: 0%
Kochia scoparia (kochia); [28]
  % visual injury, Obs: 0%
[7]; [28]
  % visual injury, Obs: 0%
